Like-named read-outs stand apart in the source and are kept apart here.
How the values were obtained:
AChE = target: T1, AChE (Rattus norvegicus, UniProt P37136); experiment: In vitro AChE inhibitory assay (Ellman's method); format: biochemical
T1 construct: AChE was derived from the SD rat brains by homogenizing the brain with 20-fold saline solution; from tissue; host or cells: SD rat brain homogenate (supernatant after 800 x g)
Method: The AChE inhibitory activity of DL0410 derivatives was assessed by determining the hydrolysis product of Acetylthiocholine iodide (ASCh) using the Ellman’s method. 5,5′-Dithiobis (2-nitrobenzoic acid) (DTNB), and the substrate ASCh were purchased from Sigma Aldrich. AChE was derived from the SD rat brains by homogenizing the brain with 20-fold saline solution, and then centrifuged at 800× g for 20 min at 4 °C. To acquire the inhibition of AChE activity, five serial dilutions of samples were measured. A Spectra Max M5 microplate reader (Molecular Devices, Sunnyvale, CA, USA) was utilized for the assay for AChE reaction system with 96-well plates in 0.05 M phosphate-buffered solution (PBS). The reaction system includes 10 μL sample, 20 μL AChE solution, 60 μL 3.75 mM ASCh, and 80 μL 0.25 mg/mL DTNB. It took 60 min at 37 °C for incubation, and the absorbance intensity of AChE reaction system was quantified at 412 nm.

BuChE = target: T2, BuChE (Homo sapiens, UniProt P06276); experiment: In vitro BuChE inhibitory assay (Ellman-type, human plasma); format: biochemical; conditions: BuChE from human plasma, BuSCh substrate, 60 min, 37 °C
T2 construct: BuChE was obtained from human plasma (purchased from Beijing Red Cross Blood Center China); tissue Beijing Red Cross Blood Center China; host or cells: human plasma, diluted 200-fold with 0.05 M PBS
Method: BuChE was obtained from human plasma (purchased from Beijing Red Cross Blood Center China). Before utilization, human plasma was diluted 200-fold with 0.05 M PBS. Five serial dilutions of samples are determined to obtain BuChE inhibitory activity. The BuChE reaction system is similar to the assay above, including 10 μL samples, 40 μL diluted plasma sample, 70 μL 7.5 mM S-butyrylthiocholine (BuSCh), and 80 μL 0.25 mg/mL DTNB. After incubation at 37 °C for 60 min, the absorbance intensity of the system was measured at wavelength 412 nm.

[1] = AChE from SD rat brain homogenate, ASCh substrate, 60 min, 37 °C, read-out: IC50(μM) AChE

T2 sequence (P06276 29-602): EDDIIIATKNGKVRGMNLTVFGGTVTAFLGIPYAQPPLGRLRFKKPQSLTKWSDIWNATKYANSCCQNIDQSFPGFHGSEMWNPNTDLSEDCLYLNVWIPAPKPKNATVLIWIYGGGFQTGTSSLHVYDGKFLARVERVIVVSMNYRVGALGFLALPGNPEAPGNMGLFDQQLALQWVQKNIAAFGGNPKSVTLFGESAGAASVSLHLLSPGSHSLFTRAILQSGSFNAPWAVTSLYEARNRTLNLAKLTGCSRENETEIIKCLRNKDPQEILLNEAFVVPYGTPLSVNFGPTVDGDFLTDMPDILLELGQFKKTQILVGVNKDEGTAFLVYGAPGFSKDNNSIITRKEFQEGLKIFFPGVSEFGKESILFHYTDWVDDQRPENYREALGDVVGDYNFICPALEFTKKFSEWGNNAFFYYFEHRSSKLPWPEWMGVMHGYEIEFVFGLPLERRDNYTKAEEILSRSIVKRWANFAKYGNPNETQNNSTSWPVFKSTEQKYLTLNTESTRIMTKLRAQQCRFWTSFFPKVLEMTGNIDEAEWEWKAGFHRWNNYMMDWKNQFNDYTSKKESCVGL
T1 sequence (P37136 32-614): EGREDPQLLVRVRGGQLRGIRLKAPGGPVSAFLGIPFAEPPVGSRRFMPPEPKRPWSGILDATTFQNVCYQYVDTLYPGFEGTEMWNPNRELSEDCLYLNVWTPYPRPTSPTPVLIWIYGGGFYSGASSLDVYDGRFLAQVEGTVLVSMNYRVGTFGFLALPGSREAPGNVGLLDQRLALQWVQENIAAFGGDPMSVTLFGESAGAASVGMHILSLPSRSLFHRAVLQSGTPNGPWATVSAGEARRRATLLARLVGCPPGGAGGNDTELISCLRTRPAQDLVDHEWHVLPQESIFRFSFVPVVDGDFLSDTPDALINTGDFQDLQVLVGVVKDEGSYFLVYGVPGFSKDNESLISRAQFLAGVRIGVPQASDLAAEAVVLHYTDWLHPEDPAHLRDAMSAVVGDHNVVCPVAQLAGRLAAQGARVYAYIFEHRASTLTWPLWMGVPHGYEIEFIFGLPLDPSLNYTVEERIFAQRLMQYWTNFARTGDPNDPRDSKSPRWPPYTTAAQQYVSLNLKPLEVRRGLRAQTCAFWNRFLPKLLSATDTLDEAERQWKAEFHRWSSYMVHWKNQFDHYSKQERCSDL

Structure (SMILES) | IC50 (AChE; [1]) [µM] | IC50 (BuChE; read-out: IC50(μM) BuChE) [µM] | IC50 (AChE) [µM] | IC50 (BuChE; IC50(μM) BuChE) [µM]
CC1CCN(CC(=O)c2ccc(-c3ccc(C(=O)CN4CCC(C)CC4)cc3)cc2)CC1 [Compound 1-7] | 49.1 | 36.6 |  | 
CCN(CC)CCC(=O)c1ccc(-c2ccc(C(=O)CCN(CC)CC)cc2)cc1 [Compound 1-9] |  | < 1 |  | 
O=C(CCN1CCCCC1)c1ccc(Cc2ccc(C(=O)CCN3CCCCC3)cc2)cc1 [Compound 3-1] | 4.11 | 4.2 |  | 
CC(C)(c1ccc(C(=O)CN2CCCCC2)cc1)c1ccc(C(=O)CN2CCCCC2)cc1 [Compound 4-4] | 17.4 | 2.93 |  | 
C=C(CN1CCCCC1)C(=O)c1ccc(-c2ccc(C(=O)C(=C)CN3CCCCC3)cc2)cc1 [Compound 7-2] | 17.1 | 1.55 |  | 
O=C(CCN1CCCCC1)c1ccc(CCc2ccc(C(=O)CCN3CCCCC3)cc2)cc1 [Compound 2-3] |  | 3.41 |  | 
O=C(CCN1CCCCC1)c1ccc(Sc2ccc(C(=O)CCN3CCCCC3)cc2)cc1 [Compound 5-2] | 3.89 | 3.44 |  | 
O=C(CCN1CCCCC1)c1ccc2c(c1)c1cc(C(=O)CCN3CCCCC3)ccc1n2C(=O)CCN1CCCCC1 [Compound 7-7] | 1.42 | 4.79 |  | 
O=C(c1ccc(-c2ccc(C(=O)N3CCCCC3)cc2)cc1)N1CCCCC1 [Compound 1-2] | 0.84 | 2.22 |  | 
CN(C)CCC(=O)c1ccc(C(C)(C)c2ccc(C(=O)CCN(C)C)cc2)cc1 [Compound 4-1] | 4.89 | 6 |  | 
CCN(C)C(=O)Oc1ccc(-c2ccc(OC(=O)N(C)CC)cc2)cc1 [Compound 7-3] |  |  | 34.1 | 0.06
CCN(C)C(=O)Oc1ccc(-c2ccc(C(=O)CCN3CCCCC3)cc2)cc1 [Compound 7-5] |  |  | 3.35 | 0.2
O=C(COCCN1CCCCC1)c1ccc(-c2ccc(C(=O)OCCN3CCCCC3)cc2)cc1 [Compound 7-4] | 18.5 | > 200 |  | 
O=C(CCN1CCOCC1)c1ccc(Cc2ccc(C(=O)CCN3CCOCC3)cc2)cc1 [Compound 3-2] | 7.09 | 7.65 |  | 
CC(C)(c1ccc(C(=O)CCN2CCCCC2)cc1)c1ccc(C(=O)CCN2CCCCC2)cc1 [Compound 4-3] | 3.07 | 3.09 |  | 
CN(C)CCC(=O)c1ccc(-c2ccc(C(=O)CCN(C)C)cc2)cc1 [Compound 1-8] |  | < 1 |  | 
COc1ccc2[nH]cc(CCNCC(=O)c3ccc(-c4ccc(C(=O)CNCCc5c[nH]c6ccc(OC)cc56)cc4)cc3)c2c1 [Compound 1-18] | 9.52 | > 200 |  | 

Structure (SMILES) | IC50 (AChE; [1]) [µM] | IC50 (BuChE; read-out: IC50(μM) BuChE) [µM] | IC50 (AChE) [µM] | IC50 (BuChE; IC50(μM) BuChE) [µM]
O=C(CCCN1CCCCC1)c1ccc(-c2ccc(C(=O)CCN3CCCCC3)cc2)cc1 [Compound 1-5] | 0.41 | 1.88 |  | 
CN(CCC(=O)c1ccc(-c2ccc(C(=O)CCN(C)Cc3ccccc3)cc2)cc1)Cc1ccccc1 [Compound 1-17] | 3.33 | 6.56 |  | 
CN(C)CCC(=O)c1ccc(Cc2ccc(C(=O)CCN(C)C)cc2)cc1 [Compound 3-5] | 3.32 | 1.72 |  | 
CN1CCN(CC(=O)c2ccc(Cc3ccc(C(=O)CN4CCN(C)CC4)cc3)cc2)CC1 [Compound 3-3] | 48.5 | 40 |  | 
O=C(CN1CCCCC1)c1ccc(CCc2ccc(C(=O)CN3CCCCC3)cc2)cc1 [Compound 2-1] | 75.5 |  |  | 
O=C(CCN1CCCCC1)c1ccc([S+]([O-])c2ccc(C(=O)CCN3CCCCC3)cc2)cc1 [Compound 5-3] | 14.1 | > 200 |  | 
O=C(CCN1CCC(N2CCCCC2)CC1)c1ccc(-c2ccc(C(=O)CCN3CCC(N4CCCCC4)CC3)cc2)cc1 [Compound 1-19] | 0.25 | > 200 |  | 
O=C(CCN1CCCCC1)c1ccc(-c2ccc(C(=O)CN3CCCCC3)cc2)cc1 [Compound 1-6] | 3.32 | 4.87 |  | 
CN(C)CCCCC(=O)c1ccc(CCc2ccc(C(=O)CCCCN(C)C)cc2)cc1 [Compound 2-10] | 3.96 | 2.77 |  | 
CC(C)(c1ccc(C(=O)CCN2CCOCC2)cc1)c1ccc(C(=O)CCN2CCOCC2)cc1 [Compound 4-5] | 15.7 | 16.3 |  | 
O=C(CCN1CCCCC1)c1ccc2sc3ccc(C(=O)CCN4CCCCC4)cc3c2c1 [Compound 6-2] | 2.03 | 1.71 |  | 
O=C(CCCCN1CCC1)c1ccc(CCc2ccc(C(=O)CCCCN3CCC3)cc2)cc1 [Compound 2-6] | 12.2 | > 200 |  | 
CN(C)CC(=O)c1ccc(C(C)(C)c2ccc(C(=O)CN(C)C)cc2)cc1 [Compound 4-2] | 54.4 | 5.95 |  | 
O=C(CCNC1CCCCC1)c1ccc(-c2ccc(C(=O)CCNC3CCCCC3)cc2)cc1 [Compound 1-16] | 2.15 | 1.91 |  | 
CN1CCN(CCC(=O)c2ccc(Cc3ccc(C(=O)CCN4CCN(C)CC4)cc3)cc2)CC1 [Compound 3-4] | 7.55 | 24.4 |  | 
O=C(CCN1CCOCC1)c1ccc(-c2ccc(C(=O)CCN3CCOCC3)cc2)cc1 [Compound 1-15] |  | < 1 |  | 
O=C(CCN1CCCCC1)c1ccc(Oc2ccc(C(=O)CCN3CCCCC3)cc2)cc1 [Compound 5-1] | 0.89 | 5.68 |  | 
